How the values were obtained:
HIV-1 NL4-3 = test: HIV replication assay in TZM-b1 cells, luciferase; format: cell-based; conditions: for antiviral effect on HIV replication: HIV-1 infected TZM-b1 cells treated daily with serial dilutions for 4 days; for EC50: Human immunodeficiency virus 1, NL43, TZM-b1, 96 h, read-out: EC50, HIV replication
[1] = system: HeLa-derived TZM-b1 cells; test: Viability of HIV-1 infected TZM-b1 cells; format: cell-based, human; conditions: HIV-1 infected TZM-b1 cells treated daily for 4 days
Text: To test the hypothesis that AAK1 and GAK are important for HIV infection, HeLa-derived TZM-b1 cells were used, which express CD4, CCR5 and CXCR4, as well as β-galactosidase and firefly luciferase reporter genes responsive to HIV transcription (Wei et al., Antimicrobial agents and chemotherapy 46:1896-1905, 2002). Cells were transfected with siRNAs targeting AAK1, GAK or a NT sequence followed by infection with the infectious HIV-1 NL4-3 clone (Adachi et al., J Virol 59:284-291, 1986), as described (Zhou et al., Cell Host & Microbe 4:495-504, 2008). Luciferase activity was measured at 96 hr postinfection.
Following 24, 48, and 72 hrs of treatment with inhibitory compounds or silencing with siRNAs, cells were incubated for 2-4 hrs at 37° C. in the presence of 10% AlamarBlue reagent (TREK Diagnostic Systems), as described (Einav et al., Nature Biotechnology 26, 1019-1027, 2008). Plates were then scanned and fluorescence was detected by using FLEXstation II 384 (Molecular Devices, Inc.).

core-AP2M1 binding = test: Core-AP2M1 co-immunoprecipitation in membranes of HCV infected Huh-7.5 cells; format: cell-based, HCV core / human AP2M1; conditions: membranes of Huh-7.5 cells infected with J6/JFH, 100 nM calyculin-A
Protocol: To determine whether core binds AP2M1 in the context of authentic HCV infection, co-immunoprecipitation assays in membrane fractions prepared from Huh-7.5 cells infected with cell culture-grown HCV (J6/JFH) were performed (Lindenbach et al., Science 309:623-626, 2005). AP2M1 could bring down core when anti-AP2M1 antibodies but not IgG controls were added to the membrane lysates. […] (FIG. 2D). […] Colocalization of core with AP2M1 in Huh-7.5 cells 72 hr following electroporation with J6/JFH HCV RNA was also investigated.
Membranes were prepared from ˜20×10^6 Huh-7.5 cells infected with HCV (J6/JFH) (Lindenbach, et al., Science 309, 623-626, 2005), as previously described (Einav et al., J Virol 78, 11288-11295, 2004). Briefly, cells were collected by trypsinization, washed once with PBS and resuspended in HME buffer (20 mM HEPES [pH 7.4], 1 mM EDTA, 2 mM MgCl2), supplemented with phenylmethylsulfonyl fluoride to a final concentration of 1 mM and a protease inhibitors cocktail (Sigma). Cells were lysed by two cycles of freeze-thaw in dry ice-ethanol and then passaged through a 27.5-gauge needle 10 times. Nuclei were removed by centrifugation at 250×g for 10 min, and the postnuclear supernatant was subjected to ultracentrifugation at 100,000×g for 30 min to obtain the membrane preparation. All steps were done at 4° C. […] Immunoprecipitates were analyzed by western blotting. […]

CO[C@@H]1[C@H](N(C)C(=O)c2ccccc2)C[C@H]2O[C@]1(C)n1c3ccccc3c3c4c(c5c6ccccc6n2c5c31)C(=O)NC4 [PKC-412] was tested, and the “antiviral effect on HIV replication” value (HIV-1 NL4-3) was “significant dose response antiviral effect” and the effect on viability [1] was “no effect on viability”.

With COC[C@@H]([C@H](O)[C@H](O)C(=O)NCC[C@H](C)c1nc(/C=C/C[C@@H]2O[C@]3(C[C@@H](O)[C@@H]2C)O[C@H]([C@H](C[C@H](O)[C@H](C)[C@H](O)[C@H](C)/C=C(C)/C(C)=C/C=C/C(C)=C\C#N)OC)[C@H](OP(=O)(O)O)C3(C)C)co1)N(C)C [calyculin A] the “binding of core to AP2M1 (co-immunoprecipitation)” value (core-AP2M1 binding) was “significantly augmented”.

For C#Cc1cccc(Nc2ncnc3cc(OCCOC)c(OCCOC)cc23)c1 [erlotinib], the “antiviral effect on HIV replication” value (HIV-1 NL4-3) was “significant dose response antiviral effect”, the EC50 (HIV-1 NL4-3) was 1400 ± 300 nM and the effect on viability [1] was “no effect on viability”.

With CCN(CC)CCNC(=O)c1c(C)[nH]c(/C=C2\C(=O)Nc3ccc(F)cc32)c1C [sunitinib] the EC50 (HIV-1 NL4-3) was 800 ± 400 nM and the effect on viability [1] was “no effect on viability”.

From patent US10869873B2 (priority 2011, dated 2020)
